# According to patent US20250311759A1, “ORGANIC COMPOUNDS” (GIVAUDAN SA, priority 2022, published 2025):
# How the values were obtained:
# Format in all cases: in vivo
# sensory panel [1] = assay: Effect on commercially available cheese sauce, sensory panel
# Description: The effect of 1H-imidazole on a commercially available cheese sauce was explored.
# Therefore, a cheese sauce has been compared by a sensory panel with a sample of the sauce further comprising 70 ppm of 1H-imidazole.
# The effect of 2-(1H-imidazol-4-yl)acetic acid on a commercially available cheese sauce was explored. Therefore, a cheese sauce has been compared by a sensory panel with a sample of the sauce further comprising 50 ppm of 2-(1H-imidazol-4-yl)acetic acid.
# sensory panel [2] = assay: Salt enhancement in aqueous NaCl solution, sensory panel; conditions: for taste description versus 0.5% NaCl solution: 50 ppm in 0.5% NaCl
# Description: Two aqueous solutions have been prepared: • A) 0.3% NaCl, and • B) 0.3% NaCl and 100 ppm of 1H-imidazole.
# The solutions were tasted by a sensory panel. Solution A was described as “salty”.
# Two aqueous solutions have been prepared: • A) 0.5% NaCl, and • B) 0.5% NaCl and 50 of ppm of 4-methyl-1H-imidazole.
# The solutions were tasted by a sensory panel. Solution A was described as “salty”. Solution B was described as more salty in comparison to solution A.
# Two aqueous solutions have been prepared: • A) 0.5% NaCl, and • B) 0.5% NaCl and 50 ppm of (2E)-3-(1H-imidazol-4-yl)prop-2-enoic acid (urocanic acid).
# The following aqueous solutions have been prepared: • A) 0.3% NaCl, • B) 0.3% NaCl and 90 ppm of 2-(1H-imidazol-4-yl)acetic acid, and • C) 0.3% NaCl and 80 ppm of benzimidazole. • The solutions were tasted by a sensory panel. Solution A was described as “salty”.
# sensory panel [3] = assay: Effect on corn curls with cheese flavor, sensory panel
# Description: Corn curls with cheese flavor with and without addition of 1H-imidazole have been compared by a sensory panel.
# Corn curls with cheese flavor with addition of 2-(1H-imidazol-4-yl)acetic acid or benzimidazole and without have been compared by a sensory panel.
# sensory panel [4] = assay: Bitter masking in aqueous KCl solution, sensory panel
# Description: Two aqueous solutions have been prepared: • A) 0.3% KCl, and • B) 0.3% KCl and 70 ppm of 1H-imidazole.
# (§1) The solutions were tasted by a sensory panel.
# The following aqueous solutions have been prepared: • A) 0.3% KCl, and • B) 0.3% KCl and 100 ppm of 2-(1H-imidazol-4-yl)acetic acid, and • C) 0.3% KCl and 100 ppm of benzimidazole.
# sensory panel [5] = assay: Effect on commercially available ketchup, sensory panel
# Description: Samples of commercially available ketchup with and without addition of 2-(1H-imidazol-4-yl)acetic acid or benzimidazole have been compared by a sensory panel.
# sensory panel [6] = assay: Effect on model broth base, sensory panel
# Description: A model broth base, comprising 0.3% of NaCl was compared with a sample further comprising 100 ppm of 1H-imidazole.
# as §1
# A model broth base, comprising 0.3% of NaCl was compared with a sample further comprising 70 ppm of 2-(1H-imidazol-4-yl)acetic acid, and 100 ppm of benzimidazole, respectively.
# The solutions were tasted by a sensory panel. […] The solution comprising benzimidazole was preferred.
# sensory panel [7] = assay: Effect on commercially available mayonnaise, sensory panel; conditions: 70 ppm in mayonnaise
# Description: Samples of commercially available mayonnaise with and without addition of 1H-imidazole have been compared by a sensory panel.
# Samples of commercially available mayonnaise with addition of 2-(1H-imidazol-4-yl)acetic acid or benzimidazole and without have been compared by a sensory panel.
# sensory panel [8] = assay: Umami enhancement in savoury model solution (NaCl, MSG, Ribotides), sensory panel; conditions: 100 ppm in 0.5% NaCl, 0.03% MSG, 0.007% Ribotides
# Description: Two aqueous solutions have been prepared: • A) 0.5% NaCl, 0.03% MSG, 0.007% Ribotides, and • B) 0.5% NaCl, 0.03% MSG, 0.007% Ribotides and 100 ppm of 1H-imidazole.
# The solutions were tasted by a sensory panel. Solution A is a model solution for savoury taste, containing MSG (monosodium glutamate) and Ribotides (IMP/GMP, 50/50 mixture) as savoury taste enhancer.
# sensory panel [9] = assay: Effect on soy based vegan burger, sensory panel; conditions: 70 ppm in soy based vegan burger; initial peak and last phase of salt perception
# Description: Soy based vegan burgers with and without 1H-imidazole have been tasted by a sensory panel.
# sensory panel [10] = assay: Effect on potato chips, sensory panel; conditions: 70 ppm, potato chips with 1.5% salt
# Description: Potato chips with 1.5% salt have been tasted by a sensory panel with and without 1H-imidazole.
# [11] = 150 ppm on corn curls with cheese flavor
# [12] = 100 ppm in model broth base comprising 0.3% NaCl
structure (smiles),measurement,setting,value
O=C(O)Cc1c[nH]cn1 [2-(1H-imidazol-4-yl)acetic acid],taste description versus cheese sauce,sensory panel [1]; 50 ppm in cheese sauce,"preferred, having more saltiness and umami character"
same,taste description versus 0.3% NaCl solution,sensory panel [2]; 90 ppm in 0.3% NaCl,clearly more salty with a minearlic note
same,taste description versus corn curls without compound,sensory panel [3]; [11],"saltier, and the rich profile was enhanced"
same,panel preference / KCl masker rating,sensory panel [4]; 100 ppm in 0.3% KCl,preferred over solution C
same,taste description versus 0.3% KCl solution,sensory panel [4]; 100 ppm in 0.3% KCl,"less bitter, less metallic and more salty"
same,taste description versus pure ketchup,sensory panel [5]; 100 ppm in ketchup,"clearly more salty, sour lingering and less sweet"
same,taste description versus model broth base,sensory panel [6]; 70 ppm in model broth base comprising 0.3% NaCl,more mineral and salty
same,taste description versus pure mayonnaise,sensory panel [7],clearly more salty with a less sour impression
c1ccc2[nH]cnc2c1 [benzimidazole],taste description versus 0.3% NaCl solution,sensory panel [2]; 80 ppm in 0.3% NaCl,clearly more salty with a sour fresh background
same,taste description versus corn curls without compound,sensory panel [3]; [11],"saltier, and the rich profile was enhanced"
same,taste description versus 0.3% KCl solution,sensory panel [4]; 100 ppm in 0.3% KCl,"less bitter, less metallic and more salty"
same,taste description versus pure ketchup,sensory panel [5]; 70 ppm in ketchup,clearly more salty
same,panel preference in broth,sensory panel [6]; 100 ppm benzimidazole versus 70 ppm 2-(1H-imidazol-4-yl)acetic acid in model broth base,preferred
same,taste description versus model broth base,sensory panel [6]; [12],more mineral and salty
same,taste description versus pure mayonnaise,sensory panel [7],clearly more salty with a less sour impression
c1c[nH]cn1 [1H-imidazole],taste description versus cheese sauce,sensory panel [1]; 70 ppm in cheese sauce,more mineral and salty
same,taste description versus 0.3% NaCl solution,sensory panel [2]; 100 ppm in 0.3% NaCl,"clearly more salty with a mineralic note, low acidity, some astringency and freshness"
same,taste description versus corn curls without compound,sensory panel [3]; 100 ppm on corn curls with cheese flavor,"saltier, and the rich profile was enhanced"
same,taste description versus savoury model solution,sensory panel [8],strong boost of saltiness and umami
same,taste description versus 0.3% KCl solution,sensory panel [4]; 70 ppm in 0.3% KCl,less metallic and more salty
same,taste description versus burger without compound,sensory panel [9],more salty
same,taste description versus potato chips without compound,sensory panel [10],higher salty impact and a lingering effect
same,taste description versus model broth base,sensory panel [6]; [12],more mineral and salty as well as more umami
same,taste description versus pure mayonnaise,sensory panel [7],clearly more salty and had a stronger acetic acid character
"O=C(O)/C=C/c1c[nH]cn1 [urocanic acid, (2E)-3-(1H-imidazol-4-yl)prop-2-enoic acid]",taste description versus 0.5% NaCl solution,sensory panel [2],more salty
Cc1c[nH]cn1 [4-methyl-1H-imidazole],taste description versus 0.5% NaCl solution,sensory panel [2],more salty
